Experiments:
[1] = human, in vivo
From the text: Safety evaluations included adverse events (AEs), vital signs, laboratory tests, and 12-lead electrocardiograms at screening, at planned times during each cycle, during follow-up, and up to 30 days after the last dose. Adverse events were graded using the National Cancer Institute Common CTCAE version 4.03.
Descriptive statistics were used to summarize demographic data, other baseline characteristics, AEs, safety parameters, and tumor assessment data. […] All subjects who completed the study were included in the evaluation of PD/PK. […] The incidence of treatment-emergent adverse events and drug-related adverse events, respectively, was summarized by treatment in frequency tables using the CTCAE grade.

[2] = tested on: cells with PI3K/AKT/mTOR pathway alterations; conditions: cited from earlier work
[3] = tested on: HR+ advanced breast cancer; parameters: method as in PMID 31091374; conditions: in combination with fulvestrant, cited from earlier work
[4] = parameters: method as in PMID 31478386; conditions: clinical; cited from earlier work
p-PRAS40 = tested on: p-PRAS40; parameters: method as in PMID 31118521; conditions: at 4 h post-dosing; cited from earlier work

## NC(=O)c1ccc2nc(-c3ccc(C4(N)CCC4)cc3)c(-c3ccccc3)n2n1 [BAY 1125976]
[1]
  Patients with at least one treatment-emergent adverse event (TEAE): 77 (97.5%) patients
  Patients with serious adverse events (SAEs): 33 patients
[2]
  IC50 of inhibition of proliferation: submicromolar

## Cc1nc(NC(=O)N2CCC[C@H]2C(N)=O)sc1-c1ccnc(C(C)(C)C(F)(F)F)c1 [alpelisib]
[3]; PIK3CA-mutated HR+ advanced breast cancer after previous endocrine therapy, versus 5.7 for control
  PFS: 11.0 months
[3]; patients without PIK3CA mutation as printed, versus 12.8% placebo control
  Overall response rate: 26.6%

## NC1(C(=O)N[C@@H](CCO)c2ccc(Cl)cc2)CCN(c2ncnc3[nH]ccc23)CC1 [AZD5363]
[4]
  Rate of Grade 3 hyperglycemia: up to 39.0%
p-PRAS40
  Reduction in p-PRAS40: about 60%
